Paper doi:10.1101/2020.08.16.252940v1 (biorxiv, 2020)

Columns and labels:
VDR-LBD = VDR-LBD (Homo sapiens, UniProt P11473); test: biochemical
VDR = VDR (Homo sapiens, UniProt P11473); details: antagonist mode; agonist and cell line not told
Chain of VDR (P11473 whole entry): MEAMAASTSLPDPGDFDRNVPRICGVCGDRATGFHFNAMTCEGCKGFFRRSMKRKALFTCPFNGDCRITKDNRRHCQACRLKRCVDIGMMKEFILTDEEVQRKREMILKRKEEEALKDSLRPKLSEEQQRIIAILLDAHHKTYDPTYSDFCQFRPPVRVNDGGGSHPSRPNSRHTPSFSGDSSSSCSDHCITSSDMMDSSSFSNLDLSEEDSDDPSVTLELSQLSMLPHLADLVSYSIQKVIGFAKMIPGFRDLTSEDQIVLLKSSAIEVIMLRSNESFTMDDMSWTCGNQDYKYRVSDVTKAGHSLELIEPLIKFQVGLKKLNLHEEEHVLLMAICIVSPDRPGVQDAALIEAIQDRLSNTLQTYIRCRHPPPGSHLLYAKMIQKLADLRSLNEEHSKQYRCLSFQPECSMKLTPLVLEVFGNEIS

Chain of VDR-LBD (P11473 118-427 limits assumed): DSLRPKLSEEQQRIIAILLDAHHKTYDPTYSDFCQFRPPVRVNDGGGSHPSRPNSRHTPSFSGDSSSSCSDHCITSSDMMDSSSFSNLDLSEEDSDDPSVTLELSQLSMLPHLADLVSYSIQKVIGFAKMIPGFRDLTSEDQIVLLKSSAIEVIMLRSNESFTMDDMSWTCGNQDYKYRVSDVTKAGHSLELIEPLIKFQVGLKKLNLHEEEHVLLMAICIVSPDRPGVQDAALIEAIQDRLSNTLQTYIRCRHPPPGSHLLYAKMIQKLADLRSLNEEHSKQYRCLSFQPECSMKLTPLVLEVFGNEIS

Row | IC50 (VDR-LBD) [µM] | inhibition only at concentrations above (VDR) [µM] | Structure (SMILES)
1 | 1.86 |  | CC(C)CCC[C@@H](C)[C@H]1CC[C@@H]2[C@]1(C)CC[C@H]1[C@]23C=C[C@]2(C[C@@H](OC(=O)CBr)CC[C@]12C)n1c(=O)n(C)c(=O)n13 [MeTC7]
2 |  | > 100 | CC(C)CCC[C@@H](C)[C@H]1CC[C@H]2C3=CC=C4C[C@@H](O)CC[C@]4(C)[C@H]3CC[C@]12C [7-dehydrocholesterol]
